Reference: patent US7109243B2 (IRM LLC, priority 2003, dated 2006)

What was measured:
Cathepsin S = Cathepsin S (Homo sapiens, UniProt P25774); experiment: Cathepsin S inhibition assay (fluorogenic peptide substrate); format: biochemical; settings: Table II, compounds of Formula I; read-out: Ki Cat. S
Experimental: “Inhibition constant”, Ki, is the dissociation constant of the enzyme-inhibitor complex, or the reciprocal of the binding affinity of the inhibitor to the enzyme. […] The inhibited rates are then fit by nonlinear regression to the following equation: […]
The assumption being made for the classical inhibition described above is that the free inhibitor concentration is equal to the total inhibitor concentration.
Kinetic measurements are performed in a total reaction volume of 30 μl in 384-well microtiter plates. […] The reactions are initiated by adding the substrate, acetyl-histidine-proline-valine-lysine-amino carbamoyl coumarin, to a final concentration of 50 μM. The rate of substrate hydrolysis is measured by monitoring the increase in fluorescence at an excitation wavelength of 380 nm and an emission wavelength of 450 nm that results from cleavage of the aniline bond in the substrate by the enzyme.

Cathepsin K = biological target: T1, Cathepsin K (Homo sapiens, UniProt P43235); experiment: Cathepsin K inhibition assay (fluorogenic peptide substrate); selectivity ratio vs cathepsin S; format: biochemical; settings: ratio of cathepsin K inhibition constant to cathepsin S inhibition constant; Table II
T1 sequence (P43235 115-329): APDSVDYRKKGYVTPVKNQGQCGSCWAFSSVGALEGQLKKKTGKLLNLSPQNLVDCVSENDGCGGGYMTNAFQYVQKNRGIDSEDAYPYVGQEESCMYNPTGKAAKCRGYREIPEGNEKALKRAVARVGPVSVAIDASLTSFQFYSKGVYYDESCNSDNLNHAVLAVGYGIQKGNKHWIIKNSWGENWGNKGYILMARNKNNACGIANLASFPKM
Experimental: The optimal substrate for cathepsin K, acetyl-lysine-histidine-proline-lysine-amino carbamoyl coumarin, was identified from screening a combinatorial library of fluorogenic peptide substrates (Harris, J. L., B. J. Backes, et al., Proc Natl Acad Sci USA 2000, 97(14), 7754-9). Kinetic measurements are performed in a total reaction volume of 30 μl in 384-well microtiter plates. […] The reactions are initiated by adding the substrate, acetyl-lysine-histidine-proline-lysine-amino carbamoyl coumarin, to a final concentration of 40 μM. The rate of substrate hydrolysis is measured by monitoring the increase in fluorescence at an excitation wavelength of 380 nm and an emission wavelength of 450 nm that results from cleavage of the aniline bond in the substrate by the enzyme. The apparent inhibition constants for the compounds are determined from the enzyme progress curves ([…]. Elrod, et al., Anal Biochem 2000, 286(1), 45-50) and are then used to calculate the inhibition constants for competitive inhibitors. Selectivity for cathepsin S in the presence of cathepsin isozymes was determined by the ratio of the cathepsin isozyme inhibition constant of a compound of the present invention to the cathepsin S inhibition constant of the same compound.

Sequence of Cathepsin S (P25774 115-331, species assumed): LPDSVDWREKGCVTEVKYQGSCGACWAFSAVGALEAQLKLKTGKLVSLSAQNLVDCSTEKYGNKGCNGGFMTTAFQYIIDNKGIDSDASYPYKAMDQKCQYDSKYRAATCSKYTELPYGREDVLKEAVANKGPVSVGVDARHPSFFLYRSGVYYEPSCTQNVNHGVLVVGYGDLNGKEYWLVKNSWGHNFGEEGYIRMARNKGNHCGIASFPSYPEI

For O=C(N[C@@H](CC1CCCCC1)C(=O)NCCNc1ccc(OC(F)(F)F)cc1)c1ccc(-c2ccccc2F)s1 [Compound 201, (S)-5-(2-Fluoro-phenyl)-thiophene-2-carboxylic acid {2-cyclohexyl-1-[2-(4-trifluoromethoxy-phenylamino)-ethylcarbamoyl]-ethyl}-amide], the Ki (Cathepsin S) was less than 100 nM and the “Selectivity for Cat. S over Cat. K” value (Cathepsin K) was “++ (++, >100)”.

O=C(N[C@@H](CC1CCCCC1)C(=O)NCCNc1ccccc1C(=O)O)c1ccc(-c2cccc(C(F)(F)F)c2)o1 [Compound 12, 2-[2-(3-Cyclohexyl-2-(S)-{[5-(3-trifluoromethyl-phenyl)-furan-2-carbonyl]-amino}-propionylamino)-ethylamino]-benzoic acid] was tested, and the Ki (Cathepsin S) was less than 100 nM and the “Selectivity for Cat. S over Cat. K” value (Cathepsin K) was “+ (+, >10)”.

With COc1ccc(NCCNC(=O)[C@H](CC2CCCCC2)NC(=O)c2cnn(-c3ccc(F)cc3)c2C)cc1 [Compound 161, (S)-1-(4-Fluoro-phenyl)-5-methyl-1H-pyrazole-4-carboxylic acid {2-cyclohexyl-1-[2-(4-methoxy-phenylamino)-ethylcarbamoyl]-ethyl}-amide] the Ki (Cathepsin S) was less than 100 nM and the “Selectivity for Cat. S over Cat. K” value (Cathepsin K) was “++ (++, >100)”.

COc1ccc(NCCNC(=O)[C@H](Cc2ccc(Oc3cccc(C)c3)cc2)NC(=O)c2cccc(C)c2)cc1 [Compound 267, (S)-N-[1-[2-(4-Methoxy-phenylamino)-ethylcarbamoyl]-2-(4-m-tolyloxy-phenyl)-ethyl]-3-methyl-benzamide] was tested, and the Ki (Cathepsin S) was less than 100 nM and the “Selectivity for Cat. S over Cat. K” value (Cathepsin K) was “+++ (+++, >1000)”.

For COc1ccc(NCCNC(=O)[C@H](CC2CCCCC2)NC(=O)c2cc(Cl)cc(Cl)c2)cc1 [Compound 179, (S)-3,5-Dichloro-N-{2-cyclohexyl-1-[2-(4-methoxy-phenylamino)-ethylcarbamoyl]-ethyl}-benzamide], the Ki (Cathepsin S) was less than 100 nM and the “Selectivity for Cat. S over Cat. K” value (Cathepsin K) was “+++ (+++, >1000)”.

O=C(Cc1ccc(F)cc1F)N[C@@H](CC1CCCCC1)C(=O)NCCNc1ccc(F)cc1 [Compound 100, 3-Cyclohexyl-2-(S)-[2-(2,4-difluoro-phenyl)-acetylamino]-N-[2-(4-fluoro-phenylamino)-ethyl]-propionamide] was tested, and the Ki (Cathepsin S) was less than 100 nM and the “Selectivity for Cat. S over Cat. K” value (Cathepsin K) was “+++ (+++, >1000)”.

For COc1ccc(NCCNC(=O)C(NC(=O)c2cccc(C)c2)c2ccc(C)cc2C)cc1 (stereo not drawn) [Compound 224, N-{(2,4-Dimethyl-phenyl)-[2-(4-methoxy-phenylamino)-ethylcarbamoyl]-methyl}-3-methyl-benzamide], the Ki (Cathepsin S) was less than 1000 nM and the “Selectivity for Cat. S over Cat. K” value (Cathepsin K) was “++ (++, >100)”.

In the case of C[C@@H](C(=O)N[C@@H](CC1CCCCC1)C(=O)NCCNc1ccc(F)cc1)c1ccccc1 [Compound 315, N-{2-cyclohexyl-1-(S)-[2-(4-fluoro-phenylamino)-ethylcarbamoyl]-ethyl}-2-(R)-phenyl-propionamide], the Ki (Cathepsin S) is reported as less than 100 nM and the “Selectivity for Cat. S over Cat. K” value (Cathepsin K) is reported as “++ (++, >100)”.

In the case of COc1ccc(NCCNC(=O)[C@H](Cc2cccc(C)c2)NC(=O)c2cccc(C)c2)cc1 [Compound 238, (S)-N-{1-[2-(4-Methoxy-phenylamino)-ethylcarbamoyl]-2-m-tolyl-ethyl}-3-methyl-benzamide], the Ki (Cathepsin S) is reported as less than 100 nM and the “Selectivity for Cat. S over Cat. K” value (Cathepsin K) is reported as “+ (+, >10)”.

COc1ccc(NCCNC(=O)[C@H](Cc2ccccc2)NC(=O)c2cc(C)c(C)cc2C)cc1 [Compound 30, (S)-N-{1-[2-(4-Methoxy-phenylamino)-ethylcarbamoyl]-2-phenyl-ethyl}-2,4,5-trimethyl-benzamide] was tested, and the Ki (Cathepsin S) was less than 100 nM and the “Selectivity for Cat. S over Cat. K” value (Cathepsin K) was “+ (+, >10)”.

In the case of COc1ccc(NCCNC(=O)[C@H](Cc2ccccc2)NC(=O)c2cccc(C)c2Cl)cc1 [Compound 16, (S)-2-Chloro-N-{1-[2-(4-methoxy-phenylamino)-ethylcarbamoyl]-2-phenyl-ethyl}-3-methyl-benzamide], the Ki (Cathepsin S) is reported as less than 1000 nM and the “Selectivity for Cat. S over Cat. K” value (Cathepsin K) is reported as “+ (+, >10)”.

O=C(N[C@@H](CC1CCCCC1)C(=O)NCCNc1ccc(OC(F)(F)F)cc1)c1ccc(Oc2ccccc2)cc1 [Compound 141, N-{2-cyclohexyl-1-(S)-[2-(4-trifluoromethoxy-phenylamino)-ethylcarbamoyl]-ethyl}-4-phenoxy-benzamide] was tested, and the Ki (Cathepsin S) was less than 100 nM and the “Selectivity for Cat. S over Cat. K” value (Cathepsin K) was “+ (+, >10)”.

COc1ccc(NCCNC(=O)[C@H](Cc2ccc(-c3cc(F)ccc3OC)cc2)NC(=O)c2cccc(C)c2)cc1 [Compound 283, (S)-N-{2-(5′-Fluoro-2′-methoxy-biphenyl-4-yl)-1-[2-(4-methoxy-phenylamino)-ethylcarbamoyl]-ethyl}-3-methyl-benzamide] was tested, and the Ki (Cathepsin S) was less than 1000 nM and the “Selectivity for Cat. S over Cat. K” value (Cathepsin K) was “++ (++, >100)”.

COc1ccc(NCCNC(=O)[C@H](Cc2ccc(F)cc2)NC(=O)c2cccc(C)c2)cc1 [Compound 245, (S)-N-{2-(4-Fluoro-phenyl)-1-[2-(4-methoxy-phenylamino)-ethylcarbamoyl]-ethyl}-3-methyl-benzamide] was tested, and the Ki (Cathepsin S) was less than 100 nM and the “Selectivity for Cat. S over Cat. K” value (Cathepsin K) was “+++ (+++, >1000)”.

In the case of COc1ccc(NCCNC(=O)[C@H](CCC2CCCCC2)NC(=O)c2ccc(-c3cccc(C(F)(F)F)c3)o2)cc1 [Compound 136, (S)-5-(3-Trifluoromethyl-phenyl)-furan-2-carboxylic acid {3-cyclohexyl-1-[2-(4-methoxy-phenylamino)-ethylcarbamoyl]-propyl}-amide], the Ki (Cathepsin S) is reported as less than 1000 nM and the “Selectivity for Cat. S over Cat. K” value (Cathepsin K) is reported as “++ (++, >100)”.

With C[C@@H](C(=O)N[C@@H](CCC1CCCCC1)C(=O)NCCNc1ccc(OC(F)(F)F)cc1)c1ccccc1 [Compound 13, 4-Cyclohexyl-2-(S)-(2-(R)-phenyl-propionylamino)-N-[2-(4-trifluoromethoxy-phenylamino)-ethyl]-butyramide] the Ki (Cathepsin S) was less than 100 nM and the “Selectivity for Cat. S over Cat. K” value (Cathepsin K) was “+++ (+++, >1000)”.

In the case of COc1ccc(NCCNC(=O)[C@H](Cc2ccccc2)NC(=O)Nc2ccccc2)cc1 [Compound 57, (S)-N-[2-(4-Methoxy-phenylamino)-ethyl]-3-phenyl-2-(3-phenyl-ureido)-propionamide], the Ki (Cathepsin S) is reported as less than 1000 nM and the “Selectivity for Cat. S over Cat. K” value (Cathepsin K) is reported as “+ (+, >10)”.

COc1ccc(NCCNC(=O)[C@H](CC2CCCCC2)NC(=O)c2sc(N)nc2C)cc1 [Compound 114, (S)-2-Amino-4-methyl-thiazole-5-carboxylic acid {2-cyclohexyl-1-[2-(4-methoxy-phenylamino)-ethylcarbamoyl]-ethyl}-amide] was tested, and the Ki (Cathepsin S) was less than 100 nM and the “Selectivity for Cat. S over Cat. K” value (Cathepsin K) was “++ (++, >100)”.

O=C(Cn1cnnn1)N[C@@H](CC1CCCCC1)C(=O)NCCNc1ccc(F)cc1 [Compound 265, 3-Cyclohexyl-N-[2-(4-fluoro-phenylamino)-ethyl]-2-(S)-(2-tetrazol-1-yl-acetylamino)-propionamide] was tested, and the Ki (Cathepsin S) was less than 1000 nM and the “Selectivity for Cat. S over Cat. K” value (Cathepsin K) was “++ (++, >100)”.

With COc1ccc(NCCNC(=O)[C@H](Cc2ccc(-c3cccc(CO)c3)cc2)NC(=O)c2cccc(C)c2)cc1 [Compound 284, (S)-N-{2-(3′-Hydroxymethyl-biphenyl-4-yl)-1-[2-(4-methoxy-phenylamino)-ethylcarbamoyl]-ethyl}-3-methyl-benzamide] the Ki (Cathepsin S) was less than 1000 nM and the “Selectivity for Cat. S over Cat. K” value (Cathepsin K) was “++ (++, >100)”.

Cc1cc(C)nc(Nc2ccc(C(=O)N[C@@H](CC3CCCCC3)C(=O)NCCNc3ccc(OC(F)(F)F)cc3)cc2)n1 [Compound 92, N-(S)-{2-cyclohexyl-1-[2-(4-trifluoromethoxy-phenylamino)-ethylcarbamoyl]-ethyl}-4-(4,6-dimethyl-pyrimidin-2-ylamino)-benzamide] was tested, and the Ki (Cathepsin S) was less than 100 nM and the “Selectivity for Cat. S over Cat. K” value (Cathepsin K) was “+ (+, >10)”.

For COc1ccc(NCCNC(=O)C(NC(=O)c2cccc(C)c2)c2ccc(OC)cc2OC)cc1 (stereo not drawn) [Compound 225, N-{(2,4-Dimethoxy-phenyl)-[2-(4-methoxy-phenylamino)-ethylcarbamoyl]-methyl}-3-methyl-benzamide], the Ki (Cathepsin S) was less than 10000 nM and the “Selectivity for Cat. S over Cat. K” value (Cathepsin K) was “+ (+, >10)”.

For Cc1cccc(-c2ccc(C(=O)N[C@@H](CC3CCCCC3)C(=O)NCCNc3ccc(OC(F)(F)F)cc3)s2)c1 [Compound 47, 5-m-Tolyl-thiophene-2-carboxylic acid (S)-{2-cyclohexyl-1-[2-(4-trifluoromethoxy-phenylamino)-ethylcarbamoyl]-ethyl}-amide], the Ki (Cathepsin S) was less than 100 nM and the “Selectivity for Cat. S over Cat. K” value (Cathepsin K) was “+++ (+++, >1000)”.

COc1ccc(NCCNC(=O)[C@H](Cc2ccc(OCc3c(Cl)cccc3Cl)cc2)NC(=O)c2cccc(C)c2)cc1 [Compound 248, (S)-N-{2-[4-(2,6-Dichloro-benzyloxy)-phenyl]-1-[2-(4-methoxy-phenylamino)-ethylcarbamoyl]-ethyl}-3-methyl-benzamide] was tested, and the Ki (Cathepsin S) was less than 100 nM and the “Selectivity for Cat. S over Cat. K” value (Cathepsin K) was “+++ (+++, >1000)”.
